Values after ≈ are worked out from the molar mass of the structure shown. Bridge positions count the residues as written; N and C are the ends. Square brackets hold non-standard residues; d marks the D form. Peptide text beside a SMILES is read from it. * marks the point of attachment. N(3-phenylpropyl)Gly = O=C(O)CNCCCc1ccccc1; Gly(NCH2CH2Ph) = O=C(O)CNCCc1ccccc1; Gly(N-2-aminoethyl) = NCCNCC(=O)O; Gly(N(CH2)3NH2) = NCCCNCC(=O)O; Gly(N-cPent) = O=C(O)CNC1CCCC1; Heptanoyl = CCCCCCC(=O)*; Nphe = O=C(O)CNCc1ccccc1; Octanoyl = CCCCCCCC(=O)*; Dab = NCC[C@H](N)C(=O)O; NPrGly = CCCNCC(=O)O
Key:
E. coli W3110 = type: cell-based, Escherichia coli; conditions: for Effect of salt on antibacterial activity against E. coli: NaCl 0-300 mM in 12.5% Mueller-Hinton broth at pH 8.5; for MIC on E. coli, 0 mM NaCl / MIC on E. coli, 100 mM NaCl / MIC on E. coli, 200 mM NaCl / MIC on E. coli, 300 mM NaCl: W3110, pH 8.5
Protocol: Minimal Inhibitory Concentration (MIC)
Antimicrobial activity was assayed for all the peptide-peptoids against P. aeruginosa PAO1, K. pneumoniae NCTC418, E. coli W3110, A. baumannii ATCC 19606, methicillin-resistant S. aureus COL (MRSA) and for selected peptides on P. aeruginosa PA14, as well as the clinical isolates ZEM-1A and ZEM9A, K. pneumoniae OXA-48, Enterobacter cloacae, Stenotrophomonas maltophilia and Staphylococus epidermidis. To determine the Minimal Inhibitory Concentration (MIC), Broth Microdilution method was used. A colony of bacteria was picked and grown in LB medium overnight at 37 °C. The next day, the culture was then regrown in LB medium to log phase (OD600 = 0.6 to 0.8), which lasted approximately 4 hours, and diluted to an OD600 of 0.022 in the desired medium (full MH or 12.5% MH).
The compounds were prepared as stock solutions of 2 mg/mL in sterilized MilliQ deionized water and then diluted in the desired media (full MH or 12.5% MH) to reach the first concentration tested (32 μg/mL). The compounds were added to the first well of a 96-well sterile, round bottom microtiter plates in polystyrene (TPP®, untreated) and diluted serially by ½ in the desired media (full MH or 12.5% MH), to a final volume of 150 µL/well. To each well was finally added 4 µL of the diluted bacterial suspension (see above), corresponding to approximately 5×10^5 CFU. For each test, two columns of the plate were kept for sterility control (medium only), growth control (medium with bacterial inoculum, no compound). The positive control, Polymyxin B (starting with a concentration of 16 µg/mL) in MH medium with bacterial inoculums, was introduced in the two first lines of the plate. The plates were incubated at 37 °C for ca. 18 hours under static conditions. 15 µL of 3-(4,5-dimethylthiazol-2-yl)-2,5-diphenyltetrazolium bromide (MTT)[7] (1 mg/mL in sterilized MilliQ deionized water) were added to each well and the plates were incubated for 20-30 minutes at room temperature. The […]
minimal inhibitory concentration (MIC) was defined as the lowest concentration of the compound that inhibits the visible growth of the tested bacteria (yellow) with the unaided eye.
Minimal Hemolytic Concentration (MHC) […]
11. Minimal inhibitory in presence of salt
The same procedure as for the antibacterial activity measurements by minimal inhibitory concentration assay (MIC) was applied. The media, 12.5% Mueller-Hinton broth was this time supplemented with different salt concentrations (0, 100, 200 300 mM NaCl). […]
All data, in μg/mL, measured against P. aeruginosa PAO1, with or without addition of salt (NaCl). The values were measured in dilute medium (12.5% MH) and at slightly basic pH (pH = 8.5), after incubation for 16-20 h at 37 °C. Values represent two different duplicate MIC determinations.

P. aeruginosa PAO1 = experiment: DiSC3(5) inner-membrane depolarization assay; type: cell-based, Pseudomonas aeruginosa; conditions: 2 µM DiSC3(5), mean ± SD, n = 3
Protocol: Outer Membrane (NPN) - E. coli
Figure S6. Outer membrane permeability assay with 10 μM NPN, on E. coli W3110.
13. DiSC3(5) Inner-Membrane Depolarization Assay
A single colony of P. aeruginosa PAO1 and E. coli W3110 was grown overnight with shaking […]
(150 rpm) in LB broth (5 mL) at 37 °C. 100 μL of the overnight culture was regrown in 10 […]
mL LB broth with shaking (200 rpm) to the exponential phase OD600 = 1 (10^9 CFU/mL).
Bacteria were washed once with HEPES buffer (5 mM HEPES, 5 mM glucose, pH 7.4) and […]
diluted to OD600 = 0.5. Stock solution of 10 mM of 3,3′ -Dipropylthiadicarbocyanine iodide […]
(DiSC3(5), purchased from Sigma) was prepared in DMSO. Stock solutions of 2 m g/mL of […]
the compounds were prepared in sterilized milli -Q water and diluted to the beginning […]
concentration of 128 μg/mL in 200 μL HEPES buffer. The diluted samples were added to the […]
first well of 96-well plates (black wells, flat bottom, BRAND ® GmbH Wertheim, Germany) […]
and diluted serially by 1/2. […]
DiSC3(5) in HEPES buffer. The plate was measured with a Tecan instrument Infinite M1000 […]
wavelength used was 610 nm ± 5 nm and the emission wavelength 660 nm ± 5 nm. The assay was measured in triplicate and repeated at least two times.[10,11] […]
Saturation determination. […] The fluorescence saturation of DsPMB with LPS was first determined, by titration (0.25 μM increments, up to 5 μM) of the DsPMB into a 3 μg/mL of LPS (10 mM Tris, 10 mM NaCl buffer, pH 7.4), at 37 °C. The fluorescence was recorded with a Jasco spectrofluorometer FP-8300, with the excitation at λex = 340 nm (5 nm slit width) and recorded from 420 to 650 nm. The fluorescence was recorded two minutes after each addition. Saturation was graphically determined, at a concentration of D sPMB ≈ 2.5 μM (λem = 485 nm). Each measurement was determined in triplicates.
Displacement assay. The displacement effect of the various peptides was determined by measuring the reduction of fluorescence intensity, at 37 °C. Initially, DsPMB (2.5 μM) was mixed with LPS (3 μg/mL) and let it react for 15 minutes before recording the fluorescence

Row | Compound | Effect of salt on antibacterial activity against E. coli (E. coli W3110) | MIC on E. coli, 0 mM NaCl (E. coli W3110) [µg/mL] | MIC on E. coli, 100 mM NaCl (E. coli W3110) [µg/mL] | MIC on E. coli, 200 mM NaCl (E. coli W3110) [µg/mL] | MIC on E. coli, 300 mM NaCl (E. coli W3110) [µg/mL] | Inner membrane depolarization (DiSC3(5)) (P. aeruginosa PAO1)
1 | CCCCCCCC(=O)N(CCc1ccccc1)CC(=O)N[C@@H](CCCCN)C(=O)N[C@@H](CC(N)=O)C(=O)N[C@H]1CCNC(=O)[C@H](CCCCN)NC(=O)CN(CCCN)C(=O)[C@H](CCCCN)NC(=O)CN(CCC)C(=O)[C@H](CCCCN)NC1=O [EB12] (Octanoyl-[Gly(NCH2CH2Ph)]KN[Dab]K[NPrGly]K[Gly(N(CH2)3NH2)]K; lactam 4-C) | inhibited by high salt concentrations | 1 (≈ 0.815 µM) | 2 (≈ 1.63 µM) | 4 (≈ 3.26 µM) | 16 (≈ 13 µM) | induced a depolarization of the inner membrane like PMB2
2 | CCCCCCC(=O)N[C@H](C(=O)N(CCN)CC(=O)N(CCCc1ccccc1)CC(=O)N[C@H]1CCNC(=O)[C@H](CCCCN)NC(=O)CN(CCCN)C(=O)[C@H](CCCCN)NC(=O)CNC(=O)[C@H](CCCCN)NC1=O)C(C)C [EB13] (Heptanoyl-V[Gly(N-2-aminoethyl)][N(3-phenylpropyl)Gly][Dab]KGK[Gly(N(CH2)3NH2)]K; lactam 4-C) | inhibited by high salt concentrations | 0.5 (≈ 0.438 µM) | 16 (≈ 14 µM) | > 64 | > 64 | induced a depolarization of the inner membrane like PMB2
3 | CCCCCCCC(=O)N[C@@H](CCCCN)C(=O)N(CC(=O)N[C@@H](CCCCN)C(=O)N[C@H]1CCNC(=O)[C@H](CCCCN)NC(=O)CN(C2CCCC2)C(=O)CN(CCN)C(=O)[C@H](CCCCN)NC(=O)[C@H](CC(N)=O)NC1=O)Cc1ccccc1 [EB21] (Octanoyl-K[Nphe]K[Dab]NK[Gly(N-2-aminoethyl)][Gly(N-cPent)]K; lactam 4-C) | inhibited by high salt concentrations | 1 (≈ 0.816 µM) | 16 (≈ 13.1 µM) | > 64 | > 64 | induced a depolarization of the inner membrane like PMB2

— article PMC12124432, “Antimicrobial Peptide‐Peptoid Macrocycles from the Polymyxin B2 Chemical Space” (Angewandte Chemie (International Ed. in English), 2025)
